Measured values from patent US20250302927A1, “MODIFIED FACTOR XA POLYPEPTIDES AND METHODS OF USE” (The United States of America, as represented by the …, priority 2022, published 2025).
Values belong to the molecule of their own block, whether it stands above or below them.

What was measured:
Male CD-1 mice = test: Tail clip bleeding model; format: in vivo; details: for Bleeding profile (bleeding graphs): apixaban 4 mg/kg, FIG. 4D
Experimental: Tail clip bleeding model: Animal experiments were performed at the U.S. FDA/CBER Division of Veterinary Services in accordance with the protocol approved by the institutional animal care and use committee (IACUC). Male CD-1 mice (Charles River Laboratories, Kingston, NY, USA) were 5-8 weeks old weighing 28-34 grams. […] After 5 minutes, 3 mm of tail were cut, after which the tail was immersed in a tube with predefined volume of 0.9% NaCl at 37° C. and allowed to bleed for 30 minutes under close observation. Blood loss was determined by measuring hemoglobin content and expressed as μl/mouse.
The design of the in vivo study in mice is depicted in FIG. 3B. […] The tails of the mice were clipped, and bleeding monitored by measuring bleeding time (FIG. 3C) and blood loss (FIG. 3D). […] All bleeding episodes were plotted using the length and number of episodes of bleeds for each individual mouse (FIG. 3E) to determine the bleeding profiles.
Additional experiments were performed in the mouse model, as above, but with the inclusion of andexanet alfa for comparison. The experimental strategy is depicted in FIG. 4A.

Factor VII (FVII) = target: T1, Factor VII (FVII) (Homo sapiens, UniProt P08709); test: 1H NMR binding of apixaban to Factor VII; details: stoichiometric amounts, FIG. 1H
T1 sequence (P08709 61-466): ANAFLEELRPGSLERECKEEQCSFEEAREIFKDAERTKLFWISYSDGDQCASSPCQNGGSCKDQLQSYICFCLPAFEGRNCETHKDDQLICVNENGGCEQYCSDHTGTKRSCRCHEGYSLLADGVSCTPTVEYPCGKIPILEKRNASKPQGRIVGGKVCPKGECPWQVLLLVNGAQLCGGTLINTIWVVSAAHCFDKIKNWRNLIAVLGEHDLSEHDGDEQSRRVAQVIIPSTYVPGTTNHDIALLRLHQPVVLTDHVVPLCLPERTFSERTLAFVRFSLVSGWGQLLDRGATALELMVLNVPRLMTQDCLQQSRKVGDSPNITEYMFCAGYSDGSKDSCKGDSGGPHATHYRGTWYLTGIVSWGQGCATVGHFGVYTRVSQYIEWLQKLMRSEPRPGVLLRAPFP
From the text: FIGS. 1A-1H show design and functional characterization of low affinity FXa variants. FIG. 1A illustrates the computational strategy using RosettaDesign and homology insertion. […] Variants 69 and 70 are located on the same region between H311 and T318. […] FIG. 1F is a graph showing the rate of chromogenic substrate cleavage in pure buffer systems by FXa variants at different concentrations. […] Values for IC50±SD were obtained from fitted curves. […] The top spectrum is the result of superposition of ligand and protein signals with no alteration. The reference NMR spectrum (middle) contains only sharp signals, as expected for an NMR spectrum of a small molecule.
The final models allowed identification of clashes with apixaban. Following manual inspection of the models, 21 designs were selected. […] (ii) Two proteins were used as homology models to identify potential mutations to include as insertions. The human factor VII (FVII) (PDB ID: 1DAN) crystal structure was superimposed onto the human FXa (PDB ID: 2P16) crystal structure and differences in amino acid identity were analyzed. Final insertion identities were based on proximity to binding pocket and length. […] Seven FXa variants were selected based on this strategy. Some of these designs failed experimental validations. In a follow up round of homology-based designs, the insertions from Factor VII were decreased in length and number. […]

[1] = tested on: tissue factor (TF)-triggered pooled normal human plasma; test: Thrombin generation assay in plasma spiked with apixaban; format: biochemical
Experimental: Thrombin generation assay: The procoagulant activity of FXa variants was evaluated by a previously described thrombin generation assay in tissue factor (TF)-triggered pooled normal human plasma (Affinity Biologicals Inc, Ontario, Canada). […] Fluorescence (product of thrombin substrate consumption) was recorded in a kinetic mode at 37° C. using a Tecan Infinite F500 every 45 seconds for a period of 1.7 hours. In-house software was used to calculate calibrate thrombin generation assay (using an internal thrombin calibrator CAT® from Stago, Parsippany, NJ, USA) and calculate thrombin peak height parameter.

[2] = Inhibition of FXa variant chromogenic substrate cleavage by apixaban (IC50); format: biochemical, human; details: for IC50: apixaban, fixed amounts of FXa variants, increasing apixaban concentrations
Experimental: Chromogenic FXa activity assay: The FXa activity assay based on CS11(65)a chromogenic substrate (Biophen) was performed as described below. […] For each sample, substrate cleavage was calculated by taking the average rate over the time frame between 1 and 2 minutes.
Activity and inhibitory concentration were determined for a larger series of variants (FIGS. 2A and 2B). Activities for all variants were determined using the rate of chromogenic substrate cleavage in pure buffer system at different FXa concentrations. Variants were assigned into five brackets (FIG. 2A). […] To be assigned as potentially beneficial the combined scores were ***** but the individual score could not be less than **.

[3] = target: T2, Tissue factor pathway inhibitor (TFPI) (Homo sapiens, UniProt P10646); test: ACTICHROME TFPI assay; format: biochemical; details: 4 nM variants vs 100 nM andexanet alfa, FIG. 5
T2 construct: BioMedica Diagnostics (assay kit)
T2 sequence (P10646 29-304): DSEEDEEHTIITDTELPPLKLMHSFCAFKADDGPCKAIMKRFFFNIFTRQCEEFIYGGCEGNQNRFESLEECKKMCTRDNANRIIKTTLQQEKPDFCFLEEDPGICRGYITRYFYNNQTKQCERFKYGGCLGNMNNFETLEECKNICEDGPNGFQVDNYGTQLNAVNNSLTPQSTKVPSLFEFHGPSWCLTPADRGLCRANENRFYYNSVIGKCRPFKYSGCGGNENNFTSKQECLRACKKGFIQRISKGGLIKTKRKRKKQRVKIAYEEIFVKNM
Experimental: Tissue factor pathway inhibitor (TFPI) plays a very important role in regulation of the procoagulant activity of tissue factor (TF). […] TFPI activity was determined using ACTICHROME® TFPI assay (BioMedica Diagnostics) according to manufacturer's protocol.

[4] = target: Tissue factor pathway inhibitor (TFPI), P10646

- binding to FVII by NMR (Factor VII (FVII)): does not bind to FVII
Molecule: COc1ccc(-n2nc(C(N)=O)c3c2C(=O)N(c2ccc(N4CCCCC4=O)cc2)CC3)cc1 [apixaban, reference compound]
- Bleeding profile (bleeding graphs) (Male CD-1 mice): mostly uninterrupted flow of blood
- Bleeding time, apixaban group compared to the control group (Male CD-1 mice; tail clip, FIG. 3C): significantly greater

- fold higher IC50 values for apixaban compared to the wild-type FXa ([2]; FIG. 1G): ~350 fold
- IC50 [2]: > 251 nM
Molecule: Variant 61: modified Factor Xa polypeptide, W439A, S4 subsite, SEQ ID NO: 2
- Bleeding time (Male CD-1 mice; 1 mg/kg infused 5 min after apixaban, FIG. 3C): significantly reduced bleeding time
- Blood loss (Male CD-1 mice; 1 mg/kg infused 5 min after apixaban, FIG. 3D): successfully reversed the anticoagulant effect of apixaban
- Bleeding profile (bleeding graphs) (Male CD-1 mice): multiple breaks in blood flowing from the tail cut
- Bleeding time (Male CD-1 mice; apixaban dose of 4 mg/kg, FIG. 4B): significant decrease
- Blood loss (Male CD-1 mice; apixaban dose of 4 mg/kg, FIG. 4C): significant decrease
- Km ([1]; activity in the presence of a fixed amount (1 μM) of apixaban, read-out: apparent Km): 1100 ± 171 nM
- potency compared with wild type FXa ([1]; thrombin generation assay as worded): less potent than wild type FXa
- response to TFPI (TFPI activity) [3]: much smaller response to TPFI compared to andexanet alfa

- IC50 [2]: 151 to 250 nM
Molecule: Variant 65: modified Factor Xa polypeptide, G440A, S1 subsite, SEQ ID NO: 8

B1: FXa variant 70 (amino acids 312-317 replaced with STYVPG) (protein)
chain: GPANSFLEEMKKGHLERECMEETCSYEEAREVFEDSDKTNEFWNKYKDGDQCETSPCQNQGKCKDGLGEYTCTCLEGFEGKNCELFTRKLCSLDNGDCDQFCHEEQNSVVCSCARGYTLADNGKACIPTGPYPCGKQTLERRKRSVAQATSSSGEAPDSITWKPYDAADLDPTENPFDLLDFNQTQPERGDNNLTRIVGGQECKDGECPWQALLINEENEGFCGGTILSEFYILTAAHCLYQAKRFKVRVGDRNTEQEEGGEAVHEVEVVIKHSTYVPGTYDFDIAVLRLKTPITFRMNVAPACLPERDWAESTLMTQKTGIVSGFGRTHEKGRQSTRLKMLEVPYVDRNSCKLSSSFIITQNMFCAGYDTKQEDACQGDSGGPHVTRFKDTYFVTGIVSWGEGCARKGKYGIYTKVTAFLKWIDRSMKTRGLPKAKSHAPEVITSSPLK
- TFPI activity (ACTICHROME TFPI assay) [4]: both variants #61 and #70 showed much smaller response to TPFI compared to andexanet alfa
